ChEMBL document CHEMBL4425173, “Synthesis, biological evaluation and molecular modeling studies of psammaplin A and its analogs as potent histone deacetylases inhibitors and cytotoxic agents” (Bioorg Med Chem Lett, 2016)
The source made the active and inactive calls. The rule behind the calls is not given here.

Columns and labels:
PC-3 = assay: Cytotoxicity against human PC3 cells assessed as reduction in cell growth inhibition after 96 hrs by MTT assay; assay type: functional; details: PC-3, 96 h
Histone deacetylase = assay: Inhibition of HDAC in human HeLa cells using Fluor deLys as substrate assessed as deacetylation of substrate by fluorescence assay; assay type: cell-based
HL-60 = assay: Cytotoxicity against human HL60 cells assessed as reduction in cell growth inhibition after 72 hrs by trypan blue-staining based hemocytometric analysis; assay type: functional; details: HL-60, 72 h
MCF7 = assay: Cytotoxicity against human MCF7 cells assessed as reduction in cell growth inhibition after 96 hrs by MTT assay; assay type: functional; details: MCF7, 96 h
A549 = assay: Cytotoxicity against human A549 cells assessed as reduction in cell growth inhibition after 96 hrs by MTT assay; assay type: functional; details: A549, 96 h
[1] = target: Histone deacetylase (Homo sapiens) (UniProt Q13547+O15379+Q9UBN7+Q92769+Q9UQL6+Q8WUI4+Q9BY41+Q96DB2+P56524+Q9UKV0+Q969S8); assay: Inhibition of HDAC in human HL60 cells assessed as upregulation of H3 acetylation levels at 2 uM after 18 hrs by SDS-PAGE analysis; assay type: cell-based

Row | Structure (SMILES) | GI50 (PC-3) [µM] | IC50 (Histone deacetylase) [µM] | GI50 (HL-60) [µM] | GI50 (MCF7) [µM] | GI50 (A549) [µM] | H3 acetylation upregulation (active/not active) [1]
1 | COc1ccc(-c2cc(C(=O)NCCSSCCNC(=O)c3cc(-c4ccc(OC)cc4)on3)no2)cc1 | > 50 | 8.31 | 18.3 | – | – | –
2 | CC(C)c1ccc(C/C(=N\O)C(=O)NCCSSCCNC(=O)/C(Cc2ccc(C(C)C)cc2)=N/O)cc1 | 2.67 | 0.21 | 0.5 | 3.91 | 4.61 | –
3 | COc1ccc(C/C(=N\O)C(=O)NCCSSCCNC(=O)/C(Cc2ccc(OC)c(O)c2)=N/O)cc1O | 3.27 | 0.03 | 0.23 | 2.7 | 4.74 | Active
4 | COc1ccc(-c2cc(C(=O)NCCSSCCNC(=O)c3cc(-c4ccc(OC)cc4)[nH]n3)n[nH]2)cc1 | 26.6 | 2.77 | 6.45 | – | – | –
5 | O=C(NCCSSCCNC(=O)c1cc(-c2ccc(O)c(Br)c2)[nH]n1)c1cc(-c2ccc(O)c(Br)c2)[nH]n1 | 17.1 | 0.68 | 6.14 | – | – | –
6 | O=C(NCCSSCCNC(=O)/C(Cc1ccc(O)c(Br)c1)=N/O)/C(Cc1ccc(O)c(Br)c1)=N/O [PSAMMAPLIN A] | 3.52 | 0.05 | 0.29 | 2.26 | 4.5 | Active
7 | O=C(NCCSSCCNC(=O)/C(Cc1cccc(Cl)c1)=N/O)/C(Cc1cccc(Cl)c1)=N/O | 5.19 | 0.21 | 0.57 | 3.51 | 5.42 | –
8 | CO/N=C(\Cc1ccc(OC)cc1)C(=O)NCCSSCCNC(=O)/C(Cc1ccc(OC)cc1)=N/OC | 26.8 | 3.15 | 5.18 | 16.4 | 38.3 | –
9 | CO/N=C(\Cc1ccc(Cl)cc1Cl)C(=O)NCCSSCCNC(=O)/C(Cc1ccc(Cl)cc1Cl)=N/OC | > 50 | 8.59 | 8.64 | 16.5 | 47.1 | –
10 | Cc1ccc(C/C(=N\O)C(=O)NCCSSCCNC(=O)/C(Cc2ccc(C)cc2)=N/O)cc1 | 6.43 | 0.26 | 0.74 | 4.3 | 8.35 | Active
11 | COc1ccc(-c2cc(C(=O)NCCSSCCNC(=O)c3cc(-c4ccc(OC)c(Br)c4)[nH]n3)n[nH]2)cc1Br | 16.9 | 1.86 | 5.52 | – | – | –
12 | O=C(NCCSSCCNC(=O)/C(Cc1ccc(Cl)cc1Cl)=N/O)/C(Cc1ccc(Cl)cc1Cl)=N/O | 4.61 | 0.28 | 0.87 | 4.98 | 6.79 | –
13 | COc1ccc(C/C(=N\O)C(=O)NCCSSCCNC(=O)/C(Cc2ccc(OC)cc2)=N/O)cc1 | 5.5 | 0.12 | 0.78 | 2.68 | 6.85 | –
14 | O=C(NCCSSCCNC(=O)/C(Cc1ccc2c(c1)OCO2)=N/O)/C(Cc1ccc2c(c1)OCO2)=N/O | 2.4 | 0.13 | 0.67 | 3.77 | 4.78 | Active
15 | O=C(NCCSSCCNC(=O)/C(Cc1cccc(C(F)(F)F)c1)=N/O)/C(Cc1cccc(C(F)(F)F)c1)=N/O | 6.78 | 0.27 | 0.52 | 3.48 | 4.48 | –
16 | O=C(NCCSSCCNC(=O)c1cc(-c2ccc(O)cc2)[nH]n1)c1cc(-c2ccc(O)cc2)[nH]n1 | 19.8 | 1.81 | 4.11 | – | – | –
17 | O=C(NCCSSCCNC(=O)c1cc(-c2ccc(O)cc2)on1)c1cc(-c2ccc(O)cc2)on1 | 31.7 | 3.14 | 11.6 | – | – | –
18 | CO/N=C(\Cc1ccc(C)cc1)C(=O)NCCSSCCNC(=O)/C(Cc1ccc(C)cc1)=N/OC | > 50 | 7.65 | 11.9 | > 50 | > 50 | inactive
19 | O=C(NCCSSCCNC(=O)/C(Cc1ccc(O)cc1)=N/O)/C(Cc1ccc(O)cc1)=N/O | 5.33 | 0.12 | 0.62 | 4.62 | 6.54 | –
20 | COc1cc(C/C(=N\O)C(=O)NCCSSCCNC(=O)/C(Cc2ccc(O)c(OC)c2)=N/O)ccc1O | 3.41 | 0.04 | 0.28 | 2.47 | 4.84 | Active
21 | CO/N=C(\Cc1cccc(Cl)c1)C(=O)NCCSSCCNC(=O)/C(Cc1cccc(Cl)c1)=N/OC | 23.1 | 4.5 | 6.55 | 14.3 | 32 | –
22 | COc1ccc(-c2cc(C(=O)NCCSSCCNC(=O)c3cc(-c4ccc(OC)c(Br)c4)on3)no2)cc1Br | 39 | 4.65 | 13.3 | – | – | –
